The subject of data set [1] is phosphate excretion in faeces. As to the kind of experiment: Cumulative 32P activity in faeces of rats administered NaH2 32PO4. In kind it is in vivo, rat. The note with it: for Cumulative 32P activity in the faeces: lanthanum carbonate 1000 mg/kg 7th dose. As to the method:
(§1) The experiment was performed using 8-week-old SD rats (CLEA Japan, Inc.). Male rats were randomly sorted into different groups based on their body weight (n = 5). […] After a 1 h treatment, NaH2^32PO4 solution (11 μCi/2 mL/rat) was administered orally. Following NaH2^32PO4 administration, rats were placed in metabolic cages, and faeces and urine were collected up to 72 h later. The compound was administered once a day during the 72 h experiment. […] The radioactivity (%) in the faecal and urine samples was calculated by setting the radioactivity of the administered NaH2^32PO4 to 100 %.

Data set [2] relates to phosphate excretion in urine. As to the kind of experiment: Cumulative 32P activity in urine of rats administered NaH2 32PO4. In kind it is in vivo, rat. As to conditions: lanthanum carbonate 1000 mg/kg 7th dose. As to the method: as §1
A short description of data set [3]: Plasma concentration of SC-919, single-dose study in normal monkeys. In kind it is in vivo, cynomolgus monkey. The note with it: 0.3 mg/kg oral, time 1, individual animals (Fig3c). As to the method: The experiments were performed at Hamamatsu Pharma Research, Inc. (Hamamatsu, Shizuoka, Japan), which is accredited by the American Association for Accreditation of Laboratory Animal Care. Male cynomolgus monkeys were housed in a room with controlled temperature, humidity, and lighting (12 h light/dark cycle). All monkeys were fed a regular diet (100 g/day, PS-A, Oriental Yeast Co., Ltd.) and had free access to tap water. The experiments were performed when the animals were 3–4 years old. The monkeys were randomized into different groups based on plasma phosphate, body weight (2.6–4.7 kg), and age (n = 6). Corn oil (FUJIFILM Wako) was used as a vehicle. […] Blood was collected from the cephalic vein, saphenous vein, or the femoral vein using a disposable syringe and needle at the indicated timepoints for the measurement of phosphate levels in the plasma. The concentration of the compound in the plasma was measured at the same timepoints (n = 6).

The nature of data set [4]: Plasma concentration of SC-919 in adenine-treated rats (sub-chronic dose study).
Data set [5] can be described thus: Plasma concentration of SC-919, single-dose study in normal rats. In kind it is in vivo, rat. As to the method:
The experiment was performed with 8-week-old male SD rats (CLEA Japan, Inc.). […] The concentration of the compound in the plasma was measured at the same timepoints (n = 3).

A short description of data set [6]: Plasma concentration of SC-919 in bilaterally nephrectomized rats. In kind it is in vivo, rat. The note with it: bilaterally nephrectomised rats, 0.3 mg/kg oral, 5 h, individual animals (Fig4e). As to the method: The experiment was performed with 9-week-old male SD rats (CLEA Japan, Inc.). For bilateral nephrectomy, rats were fasted for 16 h and were subcutaneously injected with buprenorphine (0.05 mg/kg, Otsuka). Thirty minutes later, the rats were anesthetized using isoflurane (3% v/v) and kept on thermal pads at 37 °C with isoflurane (2% v/v). The left and right abdomen and the neck were shaved with a clipper. The surgical site was disinfected with a chlorhexidine-containing antiseptic solution, and the aesthetic state was confirmed by the disappearance of the pain reflex. The skin was incised to expose the kidney, and the renal artery and vein were ligated, which was followed by the isolation of the kidney. […] A sham operation group (n = 6), without nephrectomy, was prepared following the same procedure. After completion of the operation, meloxicam (1 mg/kg) was subcutaneously administered once a day during the study. One day after the operation, anaesthesia was introduced using the procedure described above, and blood was collected from the jugular vein.

In data set [7] the target is T1, human IP6K3 (Homo sapiens, UniProt Q96PC2).
T1 sequence (Q96PC2 1-410): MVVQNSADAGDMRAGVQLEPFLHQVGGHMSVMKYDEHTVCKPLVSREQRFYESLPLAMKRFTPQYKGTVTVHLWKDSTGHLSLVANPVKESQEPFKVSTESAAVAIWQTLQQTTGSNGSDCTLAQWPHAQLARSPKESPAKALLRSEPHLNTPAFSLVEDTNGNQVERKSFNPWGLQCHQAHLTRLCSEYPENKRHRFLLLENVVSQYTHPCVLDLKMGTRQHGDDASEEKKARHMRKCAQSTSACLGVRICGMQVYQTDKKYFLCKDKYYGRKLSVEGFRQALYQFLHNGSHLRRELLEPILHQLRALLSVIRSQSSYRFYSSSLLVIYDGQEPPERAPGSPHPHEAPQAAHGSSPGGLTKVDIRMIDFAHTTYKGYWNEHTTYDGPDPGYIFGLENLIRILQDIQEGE
As to the kind of experiment: ADP-Glo kinase assay for IP6K activity. The note with it: read-out: IC50 IP6K3; recombinant human IP6K3 […], ATP 15 μM, InsP6 50 μM, 2 h; mean ± S.D.

The target of data set [8] is T2, human IP6K1 (Homo sapiens, UniProt Q92551).
T2 construct: made in house; host or cells: Sf9 insect cells (baculovirus)
As to the kind of experiment: ADP-Glo kinase assay for IP6K activity. In kind it is biochemical. As to conditions: recombinant human IP6K1 15 nM, ATP 15 μM, InsP6 50 μM, 2 h; mean ± S.D. (In ADP-Glo the light output rises with the ADP produced.)

In data set [9] the target is T3, human IP6K2 (Homo sapiens, UniProt Q9UHH9).
T3 sequence (Q9UHH9 1-426): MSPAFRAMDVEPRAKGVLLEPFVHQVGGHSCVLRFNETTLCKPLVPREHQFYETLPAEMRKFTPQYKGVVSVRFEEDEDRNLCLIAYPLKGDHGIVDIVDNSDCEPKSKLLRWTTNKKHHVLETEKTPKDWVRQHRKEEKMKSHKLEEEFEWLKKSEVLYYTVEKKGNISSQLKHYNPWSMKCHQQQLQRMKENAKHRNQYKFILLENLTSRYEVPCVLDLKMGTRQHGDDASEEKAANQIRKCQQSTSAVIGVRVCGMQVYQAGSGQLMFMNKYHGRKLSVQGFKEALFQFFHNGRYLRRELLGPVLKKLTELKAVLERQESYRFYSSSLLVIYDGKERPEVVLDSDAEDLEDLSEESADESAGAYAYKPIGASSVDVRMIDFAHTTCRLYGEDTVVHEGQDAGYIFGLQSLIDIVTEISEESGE
As to the kind of experiment: ADP-Glo kinase assay for IP6K activity. The note with it: read-out: IC50 IP6K2; recombinant human IP6K2 12 nM, ATP 15 μM, InsP6 50 μM, 2 h; mean ± S.D.

This is an account of results in publication PMC8358040, “The enzymatic activity of inositol hexakisphosphate kinase controls circulating phosphate in mammals” (Nature Communications, 2021).

As a reminder, the IC50 is the concentration that inhibits the measured activity by half.

“And” between values parts separate entries of the source, which are not always exact repeats. Equal values may be shown once.

T2 sequence (Q92551 whole entry): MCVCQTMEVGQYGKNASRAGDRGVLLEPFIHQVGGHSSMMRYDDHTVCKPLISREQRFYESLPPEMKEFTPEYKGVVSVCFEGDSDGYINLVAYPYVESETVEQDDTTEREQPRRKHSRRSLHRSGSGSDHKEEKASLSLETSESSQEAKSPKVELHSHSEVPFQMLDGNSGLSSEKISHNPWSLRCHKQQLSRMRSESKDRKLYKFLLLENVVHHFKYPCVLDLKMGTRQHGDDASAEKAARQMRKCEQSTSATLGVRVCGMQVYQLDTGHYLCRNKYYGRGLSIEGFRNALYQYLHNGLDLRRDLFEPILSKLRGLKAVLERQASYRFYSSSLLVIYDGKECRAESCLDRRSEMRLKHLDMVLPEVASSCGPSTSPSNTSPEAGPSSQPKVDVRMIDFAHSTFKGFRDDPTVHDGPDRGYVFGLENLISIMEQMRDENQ

As for `O=C([O-])[O-].O=C([O-])[O-].O=C([O-])[O-].[La+3].[La+3]` [Lanthanum carbonate], the “32P activity / phosphate excretion in faeces vs vehicle” value in data set [1] (in words) is listed as “increased”. Further, the “Cumulative 32P activity in the faeces” value in [1] (48 h (Fig3f)) is 53.2569% and 73.3985% and 64.9027% and 66.783% and 73.7253%; in data set [1] (72 h (Fig3f)) it was 53.7862% and 74.2778% and 65.7229% and 68.7476% and 74.3353%. Moreover, the “Cumulative 32P activity in the urine” value was 0.04647% and 0.2136% and 1.254% and 0.632% and 0.6628% in data set [2] (8 h (Fig3g)); 0.658% and 2.356% and 3.626% and 2.673% and 3.04% in data set [2] (24 h (Fig3g)); 0.8554% and 3.259% and 4.427% and 3.818% and 3.918% in [2] (48 h (Fig3g)); 1.078% and 3.901% and 5.067% and 4.576% and 4.362% in [2] (72 h (Fig3g)).
As for `O=C(O)c1ccc2c(c1)[C@]1(CC[C@H](Oc3ncc(Cl)cc3Cl)CC1)C(=O)N2` [SC-919], in data set [3], the “Concentration of SC-919 in plasma” value is 40.468 and 0.000 and 7.073 and 24.376 and 2.454 and 13.910. In addition, the “Concentration of SC-919 (plasma)” value in data set [4] (1 mg/kg oral, initial dose, time 2, individual animals (Fig4a), 1 mg/kg) is 928.621 and 807.664 and 876.622; in [4] (1 mg/kg, initial dose, time 6 (Fig4a)) it was 850.061 and 949.996 and 720.403; in [4] (1 mg/kg, seventh dose, time 2 (Fig4c)), 2909.926 and 3195.472 and 1783.864; in [4] (1 mg/kg, seventh dose, time 6 (Fig4c)) it was 2957.483 and 3182.718 and 1810.036; in [4] (1 mg/kg, seventh dose, time 24 (Fig4c)) it was 2238.331 and 2202.619 and 1356.448; in data set [4] (10 mg/kg, initial dose, time 2 (Fig4a)), 5701.725 and 5986.890 and 6856.247. The “Concentration of SC-919 (plasma)” value in [4] (10 mg/kg, initial dose, time 6 (Fig4a)) was 4444.794 and 6665.965 and 6592.043; in [4] (10 mg/kg, initial dose, time 24 (Fig4a)), 2595.707 and 5143.151 and 4143.702; in data set [4] (10 mg/kg, seventh dose, time 2 (Fig4c)), 8573.125 and 12574.890 and 8591.283; in data set [4] (10 mg/kg, seventh dose, time 6 (Fig4c)) it was 7820.236 and 14817.670 and 9035.189; in [6] it was 541.632 and 264.446 and 202.061 and 200.786 and 379.989 and 301.737 and 410.34. Also, in [5] (animal studies using rats and monkeys, reviewer response), the “Free SC-919 levels” value is “below 0.05 μM”. Moreover, the “Plasma concentration of SC-919” value in data set [5] (normal rats, 1 mg/kg oral, time 1, individual animals (Fig3a), 1 mg/kg) was 1942.907 and 1856.710 and 1476.530; in [5] (normal rats, 1 mg/kg oral, time 2 (Fig3a), 1 mg/kg), 2011.947 and 2121.932 and 1778.126; in data set [5] (normal rats, 1 mg/kg oral, time 4 (Fig3a), 1 mg/kg), 2195.083 and 2444.564 and 1949.961; in data set [5] (normal rats, 1 mg/kg oral, time 8 (Fig3a), 1 mg/kg) it was 1948.434 and 2469.995 and 1783.145; in [5] (normal rats, 3 mg/kg oral, time 1 (Fig3a), 3 mg/kg), 4153.987 and 3662.163 and 4004.199; in [5] (normal rats, 3 mg/kg oral, time 2 (Fig3a), 3 mg/kg), 5074.332 and 4401.713 and 4372.837. Besides, the “Plasma concentration of SC-919” value in data set [5] (normal rats, 3 mg/kg oral, time 4 (Fig3a), 3 mg/kg) is 5790.125 and 5489.252 and 5879.739; in data set [5] (normal rats, 3 mg/kg oral, time 8 (Fig3a), 3 mg/kg), 6166.814 and 6363.863 and 4651.047; in [5] (normal rats, 10 mg/kg oral, time 1 (Fig3a), 10 mg/kg) it was 11886.470 and 10328.550 and 8429.354; in data set [5] (normal rats, 10 mg/kg oral, time 2 (Fig3a), 10 mg/kg) it was 13647.120 and 11744.460 and 11378.370; in data set [5] (normal rats, 10 mg/kg oral, time 4 (Fig3a), 10 mg/kg) it was 14060.780 and 13051.160 and 10832.720; in data set [5] (normal rats, 10 mg/kg oral, time 8 (Fig3a), 10 mg/kg) it was 14559.520 and 13008.450 and 10214.420. Also, in [5] (normal rats, 10 mg/kg oral, time 24 (Fig3a), 10 mg/kg), the “Plasma concentration of SC-919” value is 14337.480 and 9820.569 and 8024.378. Moreover, the “Plasma SC-919 concentrations” value in [5] (normal rats, oral administration, in words) is reported as “increased in a dose-dependent manner”.
Regarding `O=[N+]([O-])c1ccc(CNc2nc(NCc3cccc(C(F)(F)F)c3)nc3nc[nH]c23)cc1` [TNP, N2-(m-(trifluoromethyl)benzyl) N6-(p-nitrobenzyl)purine], the results for the concentration for half-maximal inhibition (IC50) in data set [7], in data set [8] and in data set [9] were 260 ± 21 nM, 270 ± 100 nM and 850 ± 330 nM, respectively.
